PMC10104807, “Modulation of tau tubulin kinases (TTBK1 and TTBK2) impacts ciliogenesis” (Scientific Reports, 2023)

Columns and labels:
Experiment in all cases: DiscoverX scanMAX binding assay
PIP5K2C = biological target: T1, PIP5K2C (Homo sapiens, UniProt Q8TBX8); conditions: 1 μM
T1 construct: purchased Eurofins (radiometric) / Eurofins DiscoverX scanMAX / Reaction Biology / SignalChem
T1 sequence (Q8TBX8 1-421): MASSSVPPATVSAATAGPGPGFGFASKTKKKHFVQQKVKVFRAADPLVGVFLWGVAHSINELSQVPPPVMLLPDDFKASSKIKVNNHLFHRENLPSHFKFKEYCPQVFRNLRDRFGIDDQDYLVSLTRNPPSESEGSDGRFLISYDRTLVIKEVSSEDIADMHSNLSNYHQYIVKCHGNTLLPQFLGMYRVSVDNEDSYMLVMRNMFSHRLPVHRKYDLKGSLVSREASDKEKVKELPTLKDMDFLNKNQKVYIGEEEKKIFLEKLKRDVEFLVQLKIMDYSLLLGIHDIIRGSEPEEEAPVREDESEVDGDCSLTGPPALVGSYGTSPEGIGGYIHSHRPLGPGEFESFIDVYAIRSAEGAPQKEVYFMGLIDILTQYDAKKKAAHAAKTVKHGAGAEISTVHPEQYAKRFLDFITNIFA
Source text: (§1) This panel includes 403 wild-type (WT) human kinases but not TTBK1/2. […] Substantial overlap between the MRC and DiscoverX scanMAX kinase panels allows the comparison of results for the same kinases in two different assay formats (enzymatic versus binding, respectively) at the same concentration. Selectivity results are included in two columns within Table 1. […] The rightmost column converts this selectivity score into the number of kinases with a PoC < 10 in the scanMAX panel.
(§2) The Eurofins DiscoverX Corporation scanMAX assay platform was employed to assess the selectivity of specific analogs at a single concentration (1 µM). As described previously, this assay platform profiles a compound against 403 wild-type human kinases and delivers percent of control (PoC) values. These percent of control values are included in Table 1 and corresponding kinome tree diagrams as well as tables for each analog included in Fig. S1.

PKNB(M.tuberculosis) = biological target: T2, PKNB(M.tuberculosis) (Mycobacterium tuberculosis, UniProt P9WI81); conditions: for PKNB(M.tuberculosis) % control at 1000nM: 1 μM
T2 construct: purchased Eurofins (radiometric) / Eurofins DiscoverX scanMAX / Reaction Biology / SignalChem
Source text: as §1, §2

YSK4 = biological target: T3, YSK4 (Homo sapiens, UniProt Q56UN5); conditions: 1 μM
T3 construct: purchased Eurofins (radiometric) / Eurofins DiscoverX scanMAX / Reaction Biology / SignalChem
T3 sequence (Q56UN5 1-1328): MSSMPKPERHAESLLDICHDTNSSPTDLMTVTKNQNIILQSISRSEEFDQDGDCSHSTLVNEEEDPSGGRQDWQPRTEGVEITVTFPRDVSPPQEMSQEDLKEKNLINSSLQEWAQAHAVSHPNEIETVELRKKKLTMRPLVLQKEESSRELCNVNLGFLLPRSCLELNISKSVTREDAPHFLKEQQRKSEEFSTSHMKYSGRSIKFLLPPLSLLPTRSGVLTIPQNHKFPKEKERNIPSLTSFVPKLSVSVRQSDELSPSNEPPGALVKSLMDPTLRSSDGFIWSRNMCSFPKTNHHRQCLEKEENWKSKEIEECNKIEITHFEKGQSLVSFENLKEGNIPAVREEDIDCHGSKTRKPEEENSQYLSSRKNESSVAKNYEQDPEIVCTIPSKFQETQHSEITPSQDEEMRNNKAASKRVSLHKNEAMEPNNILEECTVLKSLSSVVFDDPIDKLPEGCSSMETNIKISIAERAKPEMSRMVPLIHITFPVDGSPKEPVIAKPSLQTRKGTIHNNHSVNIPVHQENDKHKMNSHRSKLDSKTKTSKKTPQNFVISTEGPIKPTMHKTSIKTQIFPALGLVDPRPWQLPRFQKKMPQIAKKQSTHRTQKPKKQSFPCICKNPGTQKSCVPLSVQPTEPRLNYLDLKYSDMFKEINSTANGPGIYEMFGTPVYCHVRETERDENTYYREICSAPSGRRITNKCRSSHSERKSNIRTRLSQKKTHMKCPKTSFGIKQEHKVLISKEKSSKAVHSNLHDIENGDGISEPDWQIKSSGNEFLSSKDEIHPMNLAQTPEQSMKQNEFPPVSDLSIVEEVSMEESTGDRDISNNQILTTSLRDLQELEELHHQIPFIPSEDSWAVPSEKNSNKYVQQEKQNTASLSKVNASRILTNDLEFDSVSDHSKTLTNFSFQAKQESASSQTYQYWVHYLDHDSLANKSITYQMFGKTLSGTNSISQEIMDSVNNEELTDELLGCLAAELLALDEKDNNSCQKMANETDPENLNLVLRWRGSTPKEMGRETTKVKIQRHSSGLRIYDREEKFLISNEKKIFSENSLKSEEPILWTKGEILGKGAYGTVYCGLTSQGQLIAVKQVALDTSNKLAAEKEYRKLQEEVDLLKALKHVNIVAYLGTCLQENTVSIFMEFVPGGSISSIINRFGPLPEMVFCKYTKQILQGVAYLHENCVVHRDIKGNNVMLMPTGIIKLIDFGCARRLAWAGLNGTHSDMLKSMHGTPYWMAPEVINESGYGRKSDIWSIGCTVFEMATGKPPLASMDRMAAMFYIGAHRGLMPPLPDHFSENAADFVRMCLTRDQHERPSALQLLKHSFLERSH
Source text: as §1, §2

T2 sequence (P9WI81 whole entry): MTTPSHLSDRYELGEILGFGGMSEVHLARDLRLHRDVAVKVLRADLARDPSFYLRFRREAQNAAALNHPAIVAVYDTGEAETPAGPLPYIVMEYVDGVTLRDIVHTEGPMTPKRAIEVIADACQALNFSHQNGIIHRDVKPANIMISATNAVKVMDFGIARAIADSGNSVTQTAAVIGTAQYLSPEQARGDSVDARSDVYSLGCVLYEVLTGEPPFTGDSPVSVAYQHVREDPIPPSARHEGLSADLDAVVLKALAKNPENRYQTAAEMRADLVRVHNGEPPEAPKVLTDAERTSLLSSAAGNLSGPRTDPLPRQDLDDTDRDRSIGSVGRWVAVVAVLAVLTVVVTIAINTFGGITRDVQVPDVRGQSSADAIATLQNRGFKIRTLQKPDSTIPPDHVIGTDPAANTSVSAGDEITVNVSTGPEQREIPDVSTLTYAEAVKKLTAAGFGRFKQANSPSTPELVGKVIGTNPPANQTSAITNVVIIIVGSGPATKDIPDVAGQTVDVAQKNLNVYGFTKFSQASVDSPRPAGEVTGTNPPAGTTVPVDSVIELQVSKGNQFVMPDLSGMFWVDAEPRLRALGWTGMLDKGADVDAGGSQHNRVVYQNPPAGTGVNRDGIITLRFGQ

SMILES | PIP5K2C (PI5P4Kγ) % control at 1000nM / DiscoverX PoC value (PIP5K2C) | kinase binding, % of control at 1 µM (PKNB(M.tuberculosis); read-out: PKNB(M.tuberculosis) % control at 1000nM) | YSK4 % control at 1000nM / DiscoverX PoC value (YSK4) | PKNB(M.tuberculosis) % control at 1000nM (PKNB(M.tuberculosis))
CC(C)(O)C#Cc1ccc2[nH]c3c(c2c1)-c1nc(N)ncc1CCC3 [AMG28, reference compound] | 3.1 % control | 0.1% | 0 % control | 
CC(C)(O)C#Cc1ccc2[nH]c3c(c2c1)-c1nc(N)ncc1CC3 [Compound 1] | 0 % control |  | 0 % control | 1.7 % control
CC(C)(O)C#Cc1ccc2[nH]cc(-c3ccnc(N)n3)c2c1 [Compound 3] | 0.2 % control |  | 0 % control | 0.9 % control
